Legend:
Lipoxygenase = molecular target: T1, Lipoxygenase (Homo sapiens, UniProt P09917); test: Inhibition of lipoxygenase activity by human polymorphonuclear leukocytes (PMNs); format: cell-based; details: test compound 1×10^-4 m, 37° C., 5 minutes, arachidonic acid 1-C14 1×10^-4 M; for Percent Inhibition Lipoxygenese Act. 5-HETE: product 5-hydroxy-7,9,11,14-eicosatetraenoic acid; for Percent Inhibition Lipoxygenese Act. LTB4: product Leukotriene B4
T1 construct: The PMNs were prepared from 200-300 ml of heparinized blood of healthy donors; endogenous in cells; host or cells: human polymorphonuclear leukocytes from heparinized blood of healthy donors (intact cells)
T1 sequence (P09917 1-674): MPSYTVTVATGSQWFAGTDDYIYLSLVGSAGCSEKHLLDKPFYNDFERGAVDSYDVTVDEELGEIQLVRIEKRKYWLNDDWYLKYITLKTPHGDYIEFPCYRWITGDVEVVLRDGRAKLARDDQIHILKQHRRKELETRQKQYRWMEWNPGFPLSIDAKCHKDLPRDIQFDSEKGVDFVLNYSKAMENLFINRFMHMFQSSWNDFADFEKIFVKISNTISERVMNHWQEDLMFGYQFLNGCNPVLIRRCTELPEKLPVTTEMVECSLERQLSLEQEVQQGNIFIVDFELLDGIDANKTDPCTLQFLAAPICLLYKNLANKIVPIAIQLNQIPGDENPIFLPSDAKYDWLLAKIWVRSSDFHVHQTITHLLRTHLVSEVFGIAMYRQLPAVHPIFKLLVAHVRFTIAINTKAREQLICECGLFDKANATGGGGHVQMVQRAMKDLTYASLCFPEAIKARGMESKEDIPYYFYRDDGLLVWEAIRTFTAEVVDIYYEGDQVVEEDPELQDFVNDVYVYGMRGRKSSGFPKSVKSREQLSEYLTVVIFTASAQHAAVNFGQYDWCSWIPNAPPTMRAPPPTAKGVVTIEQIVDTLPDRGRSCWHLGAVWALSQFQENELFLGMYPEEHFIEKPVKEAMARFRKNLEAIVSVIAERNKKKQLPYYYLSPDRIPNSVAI
Method: (§1) Assay for Inhibition of Lipoxygenase Activity By Human Polymorphonuclear Leukocytes (PMNs)
(§2) 1. Preparation of the cells:
(§3) The PMNs were prepared from 200-300 ml of heparinized blood of healthy donors not receiving any medication for at least 7 days using Ficoll-Hypaque gradients. In general, PMNs were greater than 98% pure and their viability was assessed by dye-exclusion to be better than 95%. The cells were suspended in phosphate buffered saline containing 1.0 mM CaCl2 (PH 7.4) and 0.1 ovalbumin, and used within 30 minutes.
Incubations were carried out at 37° C. for 5 minutes in a total volume of 0.2 ml. Arachidonic acid 1-C^14 (1×10^-4 M unless otherwise indicated, and approximately 300,000 cpm) was added to a suspension of cells (ca 5×10^6) to initiate the reaction. Prior to the addition of above substrate, the test substances were added to the cells at appropriate concentrations and pre-incubated at 37° C. for 5 minutes. In general, stock solutions of test substances were prepared in ethanol (or other appropriate solvents) and diluted with either incubation buffer or water. […] Boiled enzyme blanks and controls containing no test compound were always included. The incubations were terminated by the addition of 0.6 ml of methanol, vortexed and kept on ice for 30 minutes. An internal standard (5-hydroxy-7,9,11,14-eicosatetraenoic acid methyl ester) and 1.6 ml of deionized water was added, vortexed, centrifuged, supernatants decanted and kept in the freezer overnight. Extraction and purification of the arachidonic acid and lipoxygenase products were carried out using "Baker" disposable C18 extraction columns (1 ml capacity). The columns were prewashed with methanol (2.0 ml) followed by deionized water (2 ml). After most of the solvent was removed, 2.0 ml of the supernatant was applied to the extraction column and the solvent was allowed to flow through. The column was then washed with 5 ml of deionized water and the eludate was discarded. The column was then eluted with 2.0 ml of methanol and the eludate was forced through by N2, collected and the solvent removed in a vacuum oven overnight. The residue was carefully dissolved in […] of the mobile phase (methanol 75:H2 O 25:acetic acid 0.01) and a 10 microliter aliquot counted to estimate the recoveries. An aliquot of an extract from a control tube was injected into a Waters μBondpack C-18 reverse phase column and the retention times of cycloxygenase and lipoxygenase products determined both by OD measurement at 244 nM and by collecting 1 min. fractions and determining radioactivity. Based on this information, programmed collection of fractions (total of 6) using a fraction collector was made with each of the extracts injected into the column by an autoinjector (WISP) and the fractions counted for radioactivity in a Packard Liquid Scintillation Spectrometer.
Using this procedure the following compounds were tested at a concentration of 1×10^-4 m and found to have the denoted lipoxygenase and cycloxygenase activity: […]

Cyclooxygenase = molecular target: T2, Cyclooxygenase (Homo sapiens, UniProt P23219); test: Inhibition of cyclooxygenase activity in the human PMN arachidonic acid incubation; format: cell-based; details: test compound 1×10^-4 m; human PMNs, 37° C., 5 minutes; arachidonic acid 1-C14 1×10^-4 M
T2 construct: The PMNs were prepared from 200-300 ml of heparinized blood of healthy donors; endogenous in cells; host or cells: human polymorphonuclear leukocytes from heparinized blood of healthy donors (intact cells, more than 98% pure)
Method: as §1, §2, §3
Incubations were carried out at 37° C. for 5 minutes in a total volume of 0.2 ml. Arachidonic acid 1-C^14 (1×10^-4 M unless otherwise indicated, and approximately 300,000 cpm) was added to a suspension of cells (ca 5×10^6) to initiate the reaction. Prior to the addition of above substrate, the test substances were added to the cells at appropriate concentrations and pre-incubated at 37° C. for 5 minutes. In general, stock solutions of test substances were prepared in ethanol (or other appropriate solvents) and diluted with either incubation buffer or water. […] Boiled enzyme blanks and controls containing no test compound were always included. The incubations were terminated by the addition of 0.6 ml of methanol, vortexed and kept on ice for 30 minutes. […] The residue was carefully dissolved in […] of the mobile phase (methanol 75:H2 O 25:acetic acid 0.01) and a 10 microliter aliquot counted to estimate the recoveries. An aliquot of an extract from a control tube was injected into a Waters μBondpack C-18 reverse phase column and the retention times of cycloxygenase and lipoxygenase products determined both by OD measurement at 244 nM and by collecting 1 min. fractions and determining radioactivity. Based on this information, programmed collection of fractions (total of 6) using a fraction collector was made with each of the extracts injected into the column by an autoinjector (WISP) and the fractions counted for radioactivity in a Packard Liquid Scintillation Spectrometer. […]

T2 sequence (P23219 24-599): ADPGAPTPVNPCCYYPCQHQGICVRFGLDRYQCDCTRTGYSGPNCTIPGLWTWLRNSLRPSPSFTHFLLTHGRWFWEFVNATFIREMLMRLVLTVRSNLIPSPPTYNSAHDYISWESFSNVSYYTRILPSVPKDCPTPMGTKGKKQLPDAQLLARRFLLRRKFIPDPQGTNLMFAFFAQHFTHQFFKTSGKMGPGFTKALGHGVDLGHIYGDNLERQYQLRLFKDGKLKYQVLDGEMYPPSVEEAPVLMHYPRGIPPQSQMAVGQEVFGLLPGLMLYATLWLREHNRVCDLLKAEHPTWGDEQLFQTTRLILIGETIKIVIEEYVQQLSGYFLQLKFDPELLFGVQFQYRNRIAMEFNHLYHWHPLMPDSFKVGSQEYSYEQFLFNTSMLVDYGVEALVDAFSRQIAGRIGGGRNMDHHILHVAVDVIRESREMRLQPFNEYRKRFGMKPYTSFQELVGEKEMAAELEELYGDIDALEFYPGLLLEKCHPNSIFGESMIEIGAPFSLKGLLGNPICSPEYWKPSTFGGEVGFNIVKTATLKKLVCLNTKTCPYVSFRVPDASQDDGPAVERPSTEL

Percent Inhibition Lipoxygenese Act. 5-HETE (Lipoxygenase)	Percent Inhibition Lipoxygenese Act. LTB4 (Lipoxygenase)	Percent Inhibition Cyclooxygenese Act. Total "PGs" (Cyclooxygenase)	SMILES
9%	20%	9%	CCCCC/C=C\C/C=C\C/C=C\CC=C=CCCC(=O)O [4,5,8Z,11Z,14Z-eicosatetraenoic acid]
42%	47%	7%	CCCCCCCCCCC/C=C\CC=C=CCCC(=O)O [4,5,8Z-eicosatrienoic acid]
46%	37%	22%	CCCCCCCCCCCSCC=C=CCCC(=O)O [8-thianonadeca-4,5-dienoic acid]

— patent US4515727A, “Allene containing arachidonic acid derivatives” (SYNTEX (U.S.A.) Inc., priority 1982, dated 1985)
